“Also recorded” adds a separate entry of the source. Bounds are passed on as bounds.

In series [1] the target is hERG ion channel (Homo sapiens (Human), UniProt Q12809). Put plainly: hERG Ion Channel Assay. As to conditions: for IC50: hERG ion channel activity, hERG-CHO cells; for hERG cardiac safety profile (in words): compared to reference compounds such as ABD599 and ABD899. In kind it is cell-based. As to the method:
When the ability of hERG to conduct electrical current across the cell membrane is inhibited or compromised, it can result in a potentially fatal disorder called long QT syndrome. This association between hERG and long QT syndrome has made hERG inhibition an important anti-target that must be avoided during drug development.
The activity of the compounds against the hERG ion channel was tested using two approaches: a binding assay and an automated patch-clamp, Q-patch method using stably transfected Chinese Hamster Ovary cells (hERG-CHO). hERG-CHO cells were cultured in F-12 Kaighn's Nutrient Mixture medium (Invitrogen)+10% FBS at 37° C. for 1-3 days. Cells were kept at 30° C. for 24 to 48 hours prior to patch clamping in order to increase the hERG current amplitude. Subsequently, the cells were harvested by trypsinisation, and kept in Serum Free Medium (SFM) in the Q-patch cell preparation state for up to 6 hours at room temperature before being washed and re-suspended in extracellular solution and applied to the patch clamp sites for data recording.
Patch-clamp voltage protocol: After whole cell configuration was achieved, the cell was held at −80 mV. A 50 millisecond pulse to −40 mV was delivered to measure the leaking current, which was subtracted from the tail current on-line. Then the cell was depolarized to +20 mV for 2 seconds, followed by a one second pulse to −40 mV to reveal hERG tail current. This paradigm was delivered once every 5 seconds to monitor the current amplitude.
Extracellular solution: 137 mM NaCl, 4 mM KCl, 1.8 mM CaCl2), 1 mM MgCl2, 10 mM D(+)-glucose, 10 mM HEPES buffer (pH adjusted to 7.4 with NaOH).
After the whole cell configuration was achieved, the extracellular solution (control) was applied first and the cell was stabilized for 2 minutes in extracellular solution. The test compound was then applied from low concentrations to high concentrations cumulatively. The cell was incubated with each test concentration for 5 minutes. During each incubation, the cell was repetitively stimulated using the voltage protocol described above, and the tail current amplitude was continuously monitored.
Acceptance Criteria: • (1) Peak tail current >100 pA in control. • (2) Initial run-down <30% and the run-down stops before first application of the test compound. • (3) Leak currents <50% of the control peak tail currents at any time. • (4) rs<20 MΩ throughout the experiment.
The degree of inhibition (%) was obtained by measuring the tail current amplitude, induced by a one second test pulse to −40 mV after a two second pulse to +20 mV, before and after incubation with the test compound. The difference in current was normalized to control and multiplied by 100 in order to obtain the percent inhibition.
Concentration (log) response curves were fitted to a logistic equation (three parameters assuming complete block of the current at very high test compound concentrations) to generate estimates of the 50% inhibitory concentration (IC50). The concentration-response relationship of each compound was constructed from the percentage reductions of current amplitude by sequential concentrations.
In general terms: The hERG channel carries a current that helps repolarise heart muscle cells.

Series [2] relates to human hepatocytes. In words: Human hepatocyte stability. The series is classed as in vitro ADME. Conditions: hepatocyte stability, compared to the reference compounds. Summed up: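 Compounds (1 μM final, 0.1% DMSO, 0.9% acetonitrile) were incubated in duplicate with pooled rat or human hepatocytes at 37° C, sampled at 0–60 min and quenched with methanol. Remaining parent was measured by LC-MS/MS. Elimination rate constant came from the ln(concentration)–time slope, giving t1/2 and CLint scaled to hepatocyte concentration.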

Series [3] is described as follows: Metabolite identification in rats. In kind it is in vivo, Han Wistar rats. Conditions: rat, 1 mg/kg intravenous, up to 24 hours. As to the method:
The formation of metabolites in rats was assessed to determine the propensity of the compounds to form a biaryl metabolite.
The corresponding sulfonamide compounds (for example, reference compound HMC-C-01-A) give rise to a sulphonamide metabolite which is persistent and has a long half-life. In addition, the biaryl sulphonamide metabolite acts as an inducer of metabolism in rats, which may complicate the assessment of toxicity in rodents. Therefore, the lower the propensity to form a biaryl sulphonamide metabolite, the greater the potential suitability of the compound for development for human use.
Plasma samples from Han Wistar rats, aged 8-12 weeks, were collected from animals dosed with test compound. Test compounds at a dose of 1 mg/kg were administered intravenously as a solution in 5% NMP, 5% Solutol HS, and 90% normal saline. Animals were given free access to food throughout the study. Blood samples were taken under light isoflurane anaesthesia at 12 time points following an intravenous dose (0.033, 0.1, 0.167, 0.25, 0.5, 1, 2, 4, 6, 8, 12, and 24 hours). The blood samples were collected from a set of three rats at each time point in labelled micro centrifuge tube containing K2EDTA as anticoagulant. Plasma samples were separated by centrifugation of whole blood.
All samples were processed for analysis by protein precipitation using acetonitrile and analysed with a fit-for-purpose LC-MS/MS method.
At the completion of the study, the results were expressed as detection of the metabolite and time course of formation.

hERG ion channel, sequence (Q12809 whole entry): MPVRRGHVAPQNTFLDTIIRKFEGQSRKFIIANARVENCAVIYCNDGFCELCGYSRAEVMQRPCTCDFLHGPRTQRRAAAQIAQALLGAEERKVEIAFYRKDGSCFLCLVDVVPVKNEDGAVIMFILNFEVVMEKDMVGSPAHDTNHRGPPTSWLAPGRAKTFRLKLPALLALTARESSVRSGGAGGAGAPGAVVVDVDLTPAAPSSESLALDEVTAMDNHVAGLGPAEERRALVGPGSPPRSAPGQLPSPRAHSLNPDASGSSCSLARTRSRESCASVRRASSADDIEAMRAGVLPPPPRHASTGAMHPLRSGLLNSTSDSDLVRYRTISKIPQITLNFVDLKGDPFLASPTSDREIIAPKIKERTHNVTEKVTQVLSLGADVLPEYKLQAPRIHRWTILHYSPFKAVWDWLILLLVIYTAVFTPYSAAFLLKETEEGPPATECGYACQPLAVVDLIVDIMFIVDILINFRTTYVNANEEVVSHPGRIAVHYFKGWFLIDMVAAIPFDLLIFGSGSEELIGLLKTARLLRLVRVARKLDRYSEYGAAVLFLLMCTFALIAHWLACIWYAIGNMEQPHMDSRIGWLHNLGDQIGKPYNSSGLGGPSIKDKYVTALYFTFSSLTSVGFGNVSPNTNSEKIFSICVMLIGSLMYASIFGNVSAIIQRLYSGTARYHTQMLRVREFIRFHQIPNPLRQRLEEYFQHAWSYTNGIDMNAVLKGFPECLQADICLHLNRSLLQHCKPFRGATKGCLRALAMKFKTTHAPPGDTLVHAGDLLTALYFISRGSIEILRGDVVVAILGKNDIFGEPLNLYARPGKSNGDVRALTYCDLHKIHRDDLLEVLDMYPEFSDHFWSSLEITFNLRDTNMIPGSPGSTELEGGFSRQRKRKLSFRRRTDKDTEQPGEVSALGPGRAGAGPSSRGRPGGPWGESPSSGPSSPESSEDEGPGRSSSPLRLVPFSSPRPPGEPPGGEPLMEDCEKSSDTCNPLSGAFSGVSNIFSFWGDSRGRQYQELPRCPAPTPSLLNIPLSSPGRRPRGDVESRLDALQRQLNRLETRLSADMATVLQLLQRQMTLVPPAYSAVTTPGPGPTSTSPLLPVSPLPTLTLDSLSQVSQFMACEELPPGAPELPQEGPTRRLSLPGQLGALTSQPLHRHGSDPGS

For the compound `C[C@]1(O)CC[C@@H](CS(=O)(=O)c2ccc(-c3ccc(C#N)cc3F)cc2)CC1` [CHMSA-01-A, 2-fluoro-4′-(((cis-4-hydroxy-4-methylcyclohexyl)methyl)sulfonyl)-[1,1′-biphenyl]-4-carbonitrile], the half-maximal inhibitory concentration (IC50) in series [1] was 24 µM.
As for `C[C@]1(O)CC[C@@H](CS(=O)(=O)c2ccc(-c3ccc(C#N)cc3F)cc2C(F)(F)F)CC1` [CHMSA-02-A, 2-fluoro-4′-(((cis-4-hydroxy-4-methylcyclohexyl)methyl)sulfonyl)-3′-(trifluoromethyl)-[1,1′-biphenyl]-4-carbonitrile], in series [2], the “metabolic stability (in words)” value is “exceptionally good stability”. In series [1], the “hERG cardiac safety profile (in words)” value was “particularly positive profile” and the IC50 was greater than 100 µM.
The matching figures for `C[C@]1(O)CC[C@@H](CS(=O)(=O)c2ccc(-c3ncc(F)cc3F)c(F)c2)CC1` [CHMSA-03-A, cis-4-(((4-(3,5-difluoropyridin-2-yl)-3-fluorophenyl)sulfonyl)methyl)-1-methylcyclohexan-1-ol]: “exceptionally good stability”, “particularly positive profile” and greater than 100 µM.
Take `C[C@]1(O)CC[C@H](NS(=O)(=O)c2ccc(-c3ccc(Cl)cc3C#N)cc2)CC1` [HMC-C-01-A, reference compound]: in series [3], the “formation of biaryl sulphonamide metabolite (MET-001) in plasma” value was “formed in large quantities and accumulated over time; also recorded: in large quantities (which accumulated over time)”.

Broadly, the IC50 is the concentration at which inhibition is half-maximal. Higher therefore signals weaker potency in that assay.

For the origin of these results see patent US11834414B2, “1-methyl-4-[(4-phenylphenyl)sulfonylmethyl]cyclohexyanol and 1-methyl-4-[[4-(2-pyridyl)phenyl]sulfonylmethyl]cyclohexanol compounds and their therapeutic use” (Modern Biosciences Limited, priority 2018, dated 2023).
